The test system of data set [1] is MM32 indicator strain (LuxS−, LuxN−) of V. harveyi. Put plainly: MM32 bioluminescence assay. The format is cell-based, Vibrio harveyi. To be noted: various doses, 6-hour incubation. As for the experimental part: The MM32 indicator strain (LuxS−, LuxN−) of V. harveyi was incubated with various doses of AI-2 and the bioluminescence signal measured at various time points during a 6-hour incubation.
Exogenous synthetic autoinducer-2 was added at the outset of the assay at a final concentration of 25 μg/ml. QXP-048 was added at the outset of the assay at a final concentration of 25 μg/ml. […] Exogeneous synthetic autoinducer-2 was added at the outset of the assay to a final concentration of 25 μg/ml. QXP-048 was added at the outset of the assay at a final concentration of 25 μg/ml.
The invention provides a luxN− and luxS− strain of V. harveyi, designated MM32, for identifying inhibitors of the quorum-sensing pathway. […] Further, since MM32 cannot produce AI-2, addition of exogenous AI-2 or its analogs allows rapid identification of inhibitors of AI-2.

For data set [2], the system named is SdiA. The data set is described as follows: Effect of autoinducer on SdiA regulated gene expression (rck::MudJ fusion, β-galactosidase). In kind it is cell-based. To be noted: AI-2 from E. coli or S. typhimurium, 0.4 M NaCl osmotic shock fluids at 10% (v/v). An excerpt: It was possible that the AI-2 autoinducer that we have been characterizing in S. typhimurium and E. coli acted through SdiA. […] In E. coli, we assayed an ftsQ1p2p-lacZ reporter, and in S. typhimurium we assayed an rck::MudJ fusion in both an sdiA^+ and sdiA^− background. We tested the effects of addition of LB, 0.4 M NaCl, 0.4 M NaCl osmotic shock fluids containing AI-2 activity from S. typhimurium LT2, E. coli O157, and 0.4 M NaCl osmotic shock fluid from E. coli DH5α.
For ftsQ regulation in E. coli, the plasmids pMS207 and pMS209 were transformed into E. coli strain MC4100 (Silhavy et al., 1984, supra), and the transformants were grown overnight in LB containing 100 mg/L ampicillin at 30° C. with aeration. For rck regulation, S. typhimurium strains BA1105 (rck::MudJ) and BA1305 (rck::MudJ sdiA) were grown overnight in LB containing 100 mg/L kanamycin at 30° C. with aeration. The overnight cultures were diluted 20-fold into fresh medium and grown for an additional 4.5 h. At this time, each culture was divided into five identical aliquots and 10% (v/v) of one of the following was added to each aliquot: LB, 0.4M NaCl, 0.4M osmotic shock fluids from S. typhimurium LT2, E. coli O157 or E. coli strain DH5α (negative control). The osmotic shock fluids were prepared as described above, following pre-growth of the S. typhimurium LT2 and E. coli in LB containing 0.5% glucose for 6 h. […]

For data set [3], the system named is V. harveyi strains MM32, BB120, BB170. Put plainly: Microtiter crystal violet biofilm formation assay. In kind it is cell-based, Vibrio harveyi. The method, then: (§1) Biofilm formation was measured using a microtiter-based assay. Free-swimming (planktonic) bacteria were cultured in AB or LB media supplemented with glucose in 96 well microtiter dishes. Biofilms typically formed along the walls of the wells at the interface of the liquid and air phase. At the end of the incubation, aliquots of a crystal violet solution (stock 0.1%) were added to the wells to stain both the adherent and the non-adherent cells. The wells were then washed with deionized water to remove non-adherent cells, and the bound crystal violet solubilized with 200 microliters of water. Absorbance reading at 600 nm (A600) were used to quantitate the amount of crystal violet dye that had adhered to the biofilms. When indicated, synthetic AI-2 was added to the wells at the beginning of the cultures.
Various amounts of synthetic AI-2 were added to the initial free-swimming bacterial cultures in LB media supplemented with glucose, and biofilm formation measured at the end of the incubation.

Data set [4] has as its system Pseudomonas aeruginosa (ATCC 27853). Put plainly: Microtiter crystal violet biofilm formation assay. To be noted: AB media with glucose; pH-dependent. The format is cell-based. The method, then:
as §1
The effects of AI-2 on biofilm formation were also evaluated in Pseudomonas aeruginosa (ATCC 27853)(FIG. 27). Biofilm formation by this organism is of particular interest because of the association of Pseudomonas aeruginosa biofilms with decreased lung capacity in subjects with cystic fibrosis.

Data set [5] in a line: Characterization of AI-2 activity: acid, base and heat stability. In kind it is physicochemical.
Data set [6] has as its system AI-2 mediated luciferase expression in V. harveyi. Put plainly: V. harveyi bioassay, tester and control strains, bioluminescence intensity. In kind it is cell-based, Vibrio harveyi. As for the experimental part: The results are normalized to cell count and control strain.
The inhibition of an AI-2 mediated response was further measured in the V. harveyi bioassay. Compound QXP031 was tested against V. harveyi tester and control strains. […] The results are normalized to cell count and any minimal effects seen in the control strain. The fold difference in bioluminescence intensity at the different drug concentrations versus no drug control is indicated above the appropriate bars in FIG. 21.

Data set [7] concerns CAMP expression by S. pyogenes 19615. Put plainly: CAMP assay (S. aureus 25923 streak, S. pyogenes 19615 streaks, sheep blood agar). In kind it is cell-based, Streptococcus pyogenes. The method, then:
The horizontal streak is S. aureus 25923 and the vertical streaks are S. pyogenes 19615. Filter disks containing either DMSO no drug control or compound QXP031 were applied to plates and incubated anaerobically overnight at 37° C.
Many streptococci produce a diffusible extracellular protein (CAMP) that acts synergistically with staphylococcal beta lysin to lyse erythrocytes on trypticase soy agar plates containing sheep blood. Hemolysis of erythrocytes is an important component of the virulence response in many pathogenic bacteria. A single straight streak of a beta lysin producing S. aureus strain is made. Steptococci to be tested are streaked perpendicular to the S. aureus streak.

In data set [8] the test system is S. pyogenes 19615 proteolytic activity. Put plainly: Skim milk plate proteinase assay. The format is cell-based, Streptococcus pyogenes. The following applies: filter disk, anaerobic overnight 37° C. As for the experimental part: Skim milk containing plates were overlaid with top agar containing S. pyogenes 19615. Filter disks containing either DMSO no compound control or compound QXP031 were applied to plates and incubated anaerobically overnight at 37° C.
Proteinase activity is an important component of the virulence response in many pathogenic bacteria. Skim milk containing agar plates can be used to score for proteinase activity in a variety of bacteria. Proteolytic activity is scored as a clearing zone surrounding a test inoculum. The clearing zone is the result of the proteolytic breakdown of the milk proteins suspended in the agar plates. Regions where milk protein is not broken retain a milky opaque appearance.

Each structure is given as a SMILES string. “Also recorded” adds a separate entry of the source.

With `CC1=C(O)C(=O)CO1` [AI-2, 4-hydroxy-5-methyl-2h-furan-3-one], in data set [1], the bioluminescence signal result is “induction of bioluminescence”. For the same compound, the “change in β-galactosidase production” value in data set [2] was “No change”. Also, the biofilm formation result in data set [3] (MM32 strain, low doses, LB media with glucose) was “block biofilm formation”; in data set [3] (higher concentrations, all V. harveyi strains tested), “stimulated biofilm formation”; in data set [3] (indicator strain BB170, low doses, LB media with glucose), “increases the extent of biofilm that forms”; in data set [3] (wild-type strain BB120, low doses, LB media with glucose), “increases the extent of biofilm that forms”; in data set [4] it was “dose-dependent increase in the level of biofilm formation”. Besides, in data set [3] (null mutant (AI-1−/AI-2−) V. harveyi), the “biofilm production after addition to the medium” value was “allows (AI-1−/AI-2−) V. harveyi to produce biofilm”. In addition, in data set [5], the “stability of activity to acid” value is on record as “acid-stable”. Moreover, in data set [5], the “stability of activity to base” value is “base-labile”. In data set [5] (but not 100° C.), the “temperature of heating withstood by the activity” value was “about 80 °C”.

As for `CC(=O)O[C@H]1C=CC(=O)C1` [QXP031, (R)-4-acetoxy-cyclopent-2-eneone], the “effect on AI-2 mediated luciferase expression” value in data set [6] (at the concentrations indicated in FIG. 21) is listed as “specifically inhibited”. Also, in data set [6] (various concentrations, normalized to cell count and control strain), the “specific decrease in bioluminescence as a result of AI-2 inhibition” value was “up to 15000 fold”. In addition, the CAMP score result in data set [7] was “negative CAMP score”. Also, the “hemolysis in CAMP assay” value in data set [7] (filter disk, anaerobic overnight 37° C.) is listed as “complete inhibition of hemolysis”. The “proteolysis of milk protein” value in data set [8] was “inhibition of S. pyogenes proteolytic activity; also recorded: proteolysis was inhibited”.
